Reference: PMC7096246 (Journal of pharmaceutical sciences, 2020)
Converted amounts (≈) assume the structure as drawn.

Columns and labels:
[1] = Saturation solubility in 50% FBS/PBS; type: physicochemical
[2] = cited from earlier work
[3] = Water solubility measured in the current study; type: physicochemical
[4] = ref DrugBank database, DB01229 and DB08889; cited from earlier work

Compound: CC(C)C[C@H](NC(=O)[C@H](CCc1ccccc1)NC(=O)CN1CCOCC1)C(=O)N[C@@H](Cc1ccccc1)C(=O)N[C@@H](CC(C)C)C(=O)[C@@]1(C)CO1 [CFZ, carfilzomib]
- solubility at 24 h [1]: 9.3 ± 0.2 µg/mL (≈ 12.9 µM)
- plasma protein binding [2]: 98%
- solubility at 24 h [3]: 1.3 ± 0.2 µg/mL (≈ 1.81 µM)
- water solubility as reported in DrugBank [4]: 4.8 µg/mL (≈ 6.67 µM)

Compound: CC(=O)O[C@H]1C(=O)[C@@]2(C)[C@H]([C@H](OC(=O)c3ccccc3)[C@]3(O)C[C@H](OC(=O)[C@H](O)[C@@H](NC(=O)c4ccccc4)c4ccccc4)C(C)=C1C3(C)C)[C@]1(OC(C)=O)CO[C@@H]1C[C@@H]2O [PTX, paclitaxel]
- plasma protein binding [2]: 88-98%
